Key:
Format in all cases: in vivo
[1] = system: Alopecurus myosuroides (ALOMY); assay: Post-emergence biological efficacy, glasshouse pot test; conditions: 312 h, after 13 days, 100=total damage, 0=no damage, read-out: Percentage damage caused to weed species ALOMY
Experimental: (§1) Seeds of Alopecurus myosuroides (ALOMY), Setaria faberi (SETFA), Echinochloa crus-galli (ECHCG), Solanum nigrum (SOLNI), Amaranthus retroflexus (AMARE) and Ipomea hederaceae (IPOHE) were sown in standard soil in pots. After cultivation for 8 days under controlled conditions in a glasshouse (at 24/16° C., day/night; 14 hours light; 65% humidity), the plants were sprayed with an aqueous spray solution derived from the formulation of the technical active ingredient in acetone/water (50:50) solution containing 0.5% Tween 20 (polyoxyethylene sorbitan monolaurate, CAS RN 9005-64-5) to give a final dose of 250 or 1000 g/ha of test compound.
(§2) The test plants were then grown on under controlled conditions in a glasshouse (at 24/16° C., day/night; 14 hours light; 65% humidity) and watered twice daily. After 13 days the test was evaluated (100=total damage to plant; 0=no damage to plant).

[2] = system: Ipomea hederaceae (IPOHE); assay: as above; conditions: Ipomoea hederacea, 312 h, after 13 days, 100=total damage, 0=no damage, read-out: Percentage damage caused to weed species IPONE
Experimental: as §1, §2

Solanum nigrum (SOLNI) [3] = assay: as above; conditions: 312 h, after 13 days, 100=total damage, 0=no damage, read-out: Percentage damage caused to weed species SOLNI
Experimental: as §1, §2

[4] = system: Echinochloa crus-galli (ECHCG); assay: as above; conditions: 312 h, after 13 days, 100=total damage, 0=no damage, read-out: Percentage damage caused to weed species ECHCG
Experimental: as §1, §2

Setaria faberi (SETFA) [5] = assay: as above; conditions: 312 h, after 13 days, 100=total damage, 0=no damage, read-out: Percentage damage caused to weed species SETFA
Experimental: as §1, §2

[6] = system: Amaranthus retroflexus (AMARE); assay: as above; conditions: 312 h, after 13 days, 100=total damage, 0=no damage, read-out: Percentage damage caused to weed species AMARE
Experimental: as §1, §2

[7] = system: Alopecurus myosuroides (ALOMY); assay: Pre-emergence biological efficacy, glasshouse pot test; conditions: 312 h, after 13 days, 100=total damage, 0=no damage, read-out: Percentage damage caused to weed species ALOMY
Experimental: as §1, with “one day” for “8 days”
(§3) The test plants were then grown under controlled conditions in the glasshouse (at 24/16° C., day/night; 14 hours light; 65% humidity) and watered twice daily. After 13 days the test was evaluated (100=total damage to plant; 0=no damage to plant).

[8] = system: Ipomea hederaceae (IPOHE); assay: as above; conditions: Ipomoea hederacea, 312 h, after 13 days, 100=total damage, 0=no damage, read-out: Percentage damage caused to weed species IPOHE
Experimental: as §1, with “one day” for “8 days”
as §3

Solanum nigrum (SOLNI) [9] = assay: as above; conditions: 312 h, after 13 days, 100=total damage, 0=no damage, read-out: Percentage damage caused to weed species SOLNI
Experimental: as §1, with “one day” for “8 days”
as §3

[10] = system: Echinochloa crus-galli (ECHCG); assay: as above; conditions: 312 h, after 13 days, 100=total damage, 0=no damage, read-out: Percentage damage caused to weed species ECHCG
Experimental: as §1, with “one day” for “8 days”
as §3

Setaria faberi (SETFA) [11] = assay: as above; conditions: 312 h, after 13 days, 100=total damage, 0=no damage, read-out: Percentage damage caused to weed species SETFA
Experimental: as §1, with “one day” for “8 days”
as §3

[12] = system: Amaranthus retroflexus (AMARE); assay: as above; conditions: 312 h, after 13 days, 100=total damage, 0=no damage, read-out: Percentage damage caused to weed species AMARE
Experimental: as §1, with “one day” for “8 days”
as §3

Row | SMILES | pest or weed control at 1000 g/ha [1] | pest or weed control at 1000 g/ha [2] | pest or weed control at 1000 g/ha (Solanum nigrum (SOLNI) [3]) | pest or weed control at 1000 g/ha [4] | pest or weed control at 1000 g/ha (Setaria faberi (SETFA) [5]) | pest or weed control at 1000 g/ha [6] | pest or weed control at 1000 g/ha [7] | pest or weed control at 1000 g/ha [8] | pest or weed control at 1000 g/ha (Solanum nigrum (SOLNI) [9]) | pest or weed control at 1000 g/ha [10] | pest or weed control at 1000 g/ha (Setaria faberi (SETFA) [11]) | pest or weed control at 1000 g/ha [12] | further results
1 | COC(=O)c1nc(-c2cc(Cl)nc(Cl)c2)nc(N)c1Cl [Compound 2-179, 4-Amino-5-chloro-2-(2,6-dichloropyridin-4-yl)-6-methoxycarbonyl pyrimidine] | 0% | 40% | 30% | 0% | 10% | 30% | 0% | 0% | 0% | 0% | 0% | 0% | 
2 | COC(=O)c1nc(-c2cccnc2OC)nc(N)c1Cl [Compound 2-154, 4-Amino-5-chloro-6-methoxycarbonyl-2-(2-methoxypyridin-3-yl)-pyrimidine] | 0% | 20% | 30% | 0% | 0% | 70% | 0% | 0% | 20% | 0% | 0% | 0% | 
3 | COC(=O)c1nc(-c2ccc(F)nc2)nc(N)c1Cl [Compound 2-157, 4-Amino-5-chloro-2-(2-fluoropyridin-5-yl)-6-methoxycarbonyl pyrimidine] | 30% | 70% | 60% | 0% | 20% | 60% | 0% | 0% | 0% | 0% | 0% | 0% | 
4 | COC(=O)c1nc(-c2cncc3ccccc23)nc(N)c1Cl [Compound 2-196, 4-Amino-5-chloro-2-isoquinolin-4-yl-6-methoxycarbonyl pyrimidine] | 0% | 0% | 0% | 0% | 0% | 0% | 0% | 0% | 0% | 0% | 0% | 0% | 
5 | COC(=O)c1nc(-c2ccc(OC)nc2OC)nc(N)c1Cl [Compound 2-159, 4-Amino-5-chloro-2-(2,6-dimethoxypyridin-3-yl)-6-methoxycarbonyl pyrimidine] | 0% | 10% | 50% | 10% | 30% | 100% | 0% | 0% | 0% | 0% | 0% | 0% | 
6 | COC(=O)c1nc(-c2cscc2C)nc(N)c1Cl [Compound 2-17, 4-Amino-5-chloro-6-methoxycarbonyl-2-(4-methylthiophen-3-yl)-pyrimidine] |  |  |  |  |  |  |  |  |  |  |  |  | pest or weed control at 250 g/ha ([1]; 250 g/ha): 0%; pest or weed control at 250 g/ha ([2]; 250 g/ha): 0%; pest or weed control at 250 g/ha (Solanum nigrum (SOLNI) [3]; 250 g/ha): 0%; pest or weed control at 250 g/ha ([4]; 250 g/ha): 0%; pest or weed control at 250 g/ha (Setaria faberi (SETFA) [5]; 250 g/ha): 0%; pest or weed control at 250 g/ha ([6]; 250 g/ha): 0%; pest or weed control at 250 g/ha ([7]; 250 g/ha): 0%; pest or weed control at 250 g/ha ([8]; 250 g/ha): 0%; pest or weed control at 250 g/ha (Solanum nigrum (SOLNI) [9]; 250 g/ha): 0%; pest or weed control at 250 g/ha ([10]; 250 g/ha): 0%; pest or weed control at 250 g/ha (Setaria faberi (SETFA) [11]; 250 g/ha): 0%; pest or weed control at 250 g/ha ([12]; 250 g/ha): 50%
7 | COC(=O)c1nc(-c2cc3ccccc3s2)nc(N)c1Cl [Compound 2-54, 4-Amino-2-(benzothiophen-2-yl)-5-chloro-6-methoxycarbonyl pyrimidine] | 0% | 80% | 40% | 70% | 50% | 70% | 20% | 0% | 20% | 70% | 20% | 70% | 
8 | CCOC(=O)c1nc(-c2ccc(Cl)s2)nc(N)c1Cl [Compound 3-2, 4-amino-5-chloro-2-(5-chlorothiophen-2-yl)-6-ethoxycarbonyl-pyrimidine] | 0% | 50% | 70% | 0% | 0% | 80% | 0% | 0% | 0% | 0% | 0% | 30% | 
9 | COC(=O)c1nc(-c2cccs2)nc(N)c1Cl [Compound 2-1, 4-Amino-5-chloro-6-methoxycarbonyl-2-thiophen-2-ylpyrimidine] | 0% | 50% | 0% | 0% | 0% | 0% | 0% | 0% | 0% | 0% | 0% | 0% | 
10 | O=C(O)c1nc(-c2ccccn2)nc(Cl)c1Cl [Compound 61-149, 4,5-dichloro-2-pyridin-2-ylpyrimidine-6-carboxylic acid] | 0% | 0% | 40% | 0% | 0% | 0% | 0% | 0% | 0% | 0% | 0% | 0% | 
11 | COC(=O)c1nc(-c2ccc(OC)s2)nc(N)c1Cl [Compound 2-7, 4-Amino-5-chloro-6-methoxycarbonyl-2-(5-methoxythiophen-2-yl)-pyrimidine] | 0% | 80% | 80% | 80% | 70% | 100% | 0% | 20% | 0% | 60% | 20% | 90% | 

From patent US20110136666A1, “CHEMICAL COMPOUNDS” (SYNGENTA CROP PROTECTION, INC., priority 2008, published 2011)
